Reference: patent publication US5439922A, “Piperidyl-substituted indoles for treating anxiety” (H. Lundbeck A/S, priority 1990, dated 1995)
“Also recorded” adds a separate entry of the source. Where two headings read alike, the source gives them in different places.

Tests used:
[1] = Catalepsy test (rat, vertical wire mesh, s.c.); conditions: sc
Description: Evaluation of catalepsy was made according to Arnt (Eur. J. Pharmacol. 90, 47-55 (1983)). Catalepsy is an indicator of dopamine receptor blockade in vivo which corrolates to the clinical potency of the classical neuroleptics. However, catalepsy is also considered to indicate extrapyramidal side effects (Arnt, J. et al.; Neuropharrnacology 1981, 20, 1331-1334.
In this test test compound is given s.c. in different doses. The rat (170-240 g )is placed on a vertical wire mesh (mesh diameter 12 mm ). The rat is considered cataleptogenic if it remains immobile for more than 15 sec. The maximum number of rats showing catalepsy within the first 6 hours is recorded for each dose group. The results are recorded in fractions and an ED50 value is calculated by means of log-probit analysis.
The following corresponding 1-aryl-3-(1,2,3,6-tetrahydropyridyl)- or 1-aryl-3-(piperazinyl)indole derivatives which are analogues of Lu 23-174 and Compound No 12, respectively, were included in the test as comparing compounds:
A) 1-(4-Fluorophenyl)-3-[1-[2-(2-imidazolidinon-1-yl)ethyl]-1,2,3,6-tetrahydropyridin-4-yl]-5-trifluoromethyl-1H-indole
B) 5-Chloro-1-(4-fluorophenyl)-3-[1-[2-(2-imidazolidinon-1-yl)ethyl]-1,2,3,6- tetrahydro-4-pyridyl]-1H-indole
C) 5-Chloro-1-(4-fluorophenyl)-3-[4-[2-(2-imidazolidinon-1-yl)ethyl]-1-piperazinyl]-1H-indole

[2] = Inhibition of isolation induced aggression in mice; assay type: in vivo, mouse (male NMRI/BOM, SPF); conditions: for ED50: Mus musculus
Description: This test is used to evaluate the ability of a test substance to inhibit isolation induced aggressive behaviour in mice and is considered to be a test model for anxiolytic effect. The method is a modified version of the method described by McMillen et al. in Drug Develop. Research 12, 53-62, 1988.
Male mice (NMRI/BOM,SPF) weighing 16-18 g were used. The mice were housed individually in macrolon cages for 3 weeks before training to attack an intruder mouse. The mice were trained daily for a period of 1-2 weeks until a satisfactory respons was obtained. During the first days the mice were trained against each other. When a satisfactory respons was obtained group-housed mice were used as intruders. The time elapsed until attack was recorded. The intruder mouse was removed as soon as an attack had occured or after 180 sec. After the training period 60-70 percent of the mice had latencies of less than 10 sec.
The mice were pretested before drug treatment. Only mice attacking within 25 sec. were used. The animals were treated with test substance or saline. The mice were tested 30 or 120 minutes later, respectively. Nonspecific motoric effects were also recorded. 8 mice were used per group.
The results were stated as fractions of mice with attack latencies greater than or equal to a threshold value. As threshold values were used 180 and 90 sec. ED50 values were calculated by log-probit analysis.
The results are given in the following table as ED50 values in μmol/kg. The known compounds diazepam, buspirone and ritanserin were included in the test for the purpose of comparison.

[3] = Light/dark discrimination test in rats; assay type: in vivo, rat (Wistar WU); conditions: rat, s.c.; observation 2h
Protocol: The test was carried out similarly to the test in mice described above, however modified in accodance with F. C. Colpaert et al., Psychopharmacology (1985) 86: 45-54. The test used Wistar WU rats.

[4] = Light/dark discrimination test in mice (two compartment activity box); assay type: in vivo, mouse (male albino BKW); conditions: mouse, i.p.
Protocol: This test was carried out in accordance with the method described in Costall et al. Br. J. Pharmacol. 90 275P (1987).
The test was conducted using a two compartment activity box in which the actions of anxiolytic compounds to reduce aversion against a brightly-lit environment may be readily detected. The box is designed as an open-top experimental box (45*27*27 cm) one third of which was partitioned from the rest, painted black and illuminated with red light. The remainder of the box was painted white and brightly illuminated (1000 W). The floor of each area was lined into squares. Behavioural changes were determined for each area from video recordings for periods of 40 min. Data obtained from dose groups of 5 animals (male albino BKW mice, 25-30 g ) were analysed using single factor analysis of variance, and Dunnett's t-test. Test compounds were given intrapentoneally 45 min before testing.
The results are given in the following Table 2 as minimum doses (mg/kg i.p.) tested showing effect (p<0.001). The behavioural change used were exploratory rearings and line crossings.
The known substances diazepam, and ondansetron were included in the test for comparison purposes.

[5] = 0.5 h, attack latency threshold 90 sec., 30 min pretreatment, read-out: ED50, threshold 90 sec., 30 min pretreatment
[6] = 0.5 h, attack latency threshold 180 sec., 30 min pretreatment, read-out: ED50, threshold 180 sec., 30 min pretreatment
[7] = 2 h, attack latency threshold 90 sec., 120 min pretreatment, read-out: ED50, threshold 90 sec., 120 min pretreatment
[8] = 2 h, attack latency threshold 180 sec., 120 min pretreatment, read-out: ED50, threshold 180 sec., 120 min pretreatment

O=C1NCCN1CCN1CC=C(c2cn(-c3ccc(F)cc3)c3ccc(C(F)(F)F)cc23)CC1 [A, 1-(4-Fluorophenyl)-3-[1-[2-(2-imidazolidinon-1-yl)ethyl]-1,2,3,6-tetrahydropyridin-4-yl]-5-trifluoromethyl-1H-indole, reference compound]
ED50 at 6 h ([1]; in vivo): 0.49 µmol/kg

O=C1NCCN1CCN1CC=C(c2cn(-c3ccc(F)cc3)c3ccc(Cl)cc23)CC1 [B, 5-Chloro-1-(4-fluorophenyl)-3-[1-[2-(2-imidazolidinon-1-yl)ethyl]-1,2,3,6-tetrahydro-4-pyridyl]-1H-indole, reference compound]
ED50 at 6 h ([1]; in vivo): 2.2 µmol/kg

O=C1CC2(CCCC2)CC(=O)N1CCCCN1CCN(c2ncccn2)CC1 [Buspirone]
ED50 [2, 5]: 9.6 µmol/kg
ED50 [2, 6]: 5.4 µmol/kg

O=C1NCCN1CCN1CCN(c2cn(-c3ccc(F)cc3)c3ccc(Cl)cc23)CC1 [C, 5-Chloro-1-(4-fluorophenyl)-3-[4-[2-(2-imidazolidinon-1-yl)ethyl]-1-piperazinyl]-1H-indole, reference compound]
ED50 at 6 h ([1]; rat): 4.5 µmol/kg

O=C1OCCN1CCN1CCC(c2cn(-c3ccc(F)cc3)c3ccc(Cl)cc23)CC1 [Compound 2, 5-chloro-1-(4-fluorophenyl)-3-[1-[2-(2-oxazolidinon-1-yl)ethyl]-4-piperidyl]-1H-indole]
ED50 at 6 h ([1]; rat): > 18 µmol/kg

CN1CCN(CCN2CCC(c3cn(-c4ccc(F)cc4)c4ccc(Cl)cc34)CC2)C1=O [Compound 3, 5-chloro-1-(4-fluorophenyl)-3-[1-[2-(3-methyl-2-imidazolidinon-1-yl)ethyl]-4-piperidyl]1H-indole]
ED50 at 6 h ([1]; in vivo): 31 µmol/kg

O=C1CCCN1CCN1CCC(c2cn(-c3ccc(F)cc3)c3ccc(Cl)cc23)CC1 [Compound 4, 5-chloro-1-(4-fluorophenyl)-3-[1-[2-(2-pyrrolidinon-1-yl)ethyl]-4-piperidyl]-1H-indole]
ED50 at 6 h ([1]; in vivo): 23 µmol/kg

O=C1NCCN1CCN1CCC(c2cn(-c3ccc(F)cc3)c3ccc(C(F)(F)F)cc23)CC1 [Compound 12, 1-(4-fluorophenyl)-3-[1-[2-(2-imidazolidinon-1-yl)ethyl]-4-piperidyl]-5-trifluomethyl-1H-indole]
ED50 at 6 h ([1]; rat): 38 µmol/kg

CC(C)N1CCN(CCN2CCC(c3cn(-c4ccc(F)cc4)c4ccc(Cl)cc34)CC2)C1=O [Compound 14, 5-chloro-1-(4-fluorophenyl)-3-[1-[2-[3-(2-propyl)-2-imidazolidinon-1-yl]ethyl]-4-piperidyl]-1H-indole]
ED50 at 6 h ([1]; rat): > 69 µmol/kg

O=C1NCCN1CCN1CCC(c2cn(-c3ccc(F)cc3)c3ccc(F)cc23)CC1 [Compound 16, 5-fluoro-1-(4-fluorophenyl)-3-[1-[2-(2-imidazolidinon-1-yl)ethyl]-4-piperidyl]-1H-indole]
ED50 at 6 h ([1]; rat): > 78 µmol/kg
ED50 [2, 7]: 2.1 µmol/kg
ED50 [2, 8]: 1.6 µmol/kg

Cc1ccc2c(c1)c(C1CCN(CCN3CCNC3=O)CC1)cn2-c1ccc(F)cc1 [Compound 24, 1-(4-fluorophenyl)-3-[1-[2-(2-imidazolidinon-1-yl)ethyl]-4-piperidyl]-5-methyl-1H-indole]
ED50 at 6 h ([1]; rat): > 95 µmol/kg
ED50 [2, 7]: 3.2 µmol/kg
ED50 [2, 8]: 2.5 µmol/kg

CN1C(=O)CN=C(c2ccccc2)c2cc(Cl)ccc21 [Diazepam]
ED50 ([2]; 0.5 h, read-out: ED50, threshold 90 sec., 30 min pretreatment): 26 µmol/kg
ED50 ([2]; 0.5 h, read-out: ED50, threshold 180 sec., 30 min pretreatment): 15 µmol/kg

O=C1NCCN1CCN1CCC(c2cn(-c3ccc(F)cc3)c3ccccc23)CC1 [Lu 23-086, 1-(4-fluorophenyl)-3-[1-[2-(2-imidazolidinon-1-yl)ethyl]-4-piperidyl]-1H-indole]
ED50 [2, 7]: 1.9 µmol/kg
ED50 [2, 8]: 1.7 µmol/kg

O=C1NCCN1CCN1CCC(c2cn(-c3ccc(F)cc3)c3ccc(Cl)cc23)CC1 [Lu 23-174, 5-chloro-1-(4-fluorophenyl)-3-[1-[2-(2-imidazolidinon-1-yl)ethyl]-4-piperidyl]-1H-indole]
ED50 at 6 h ([1]; rat): > 98 µmol/kg
Effect in light/dark discrimination test in rats (active dose in words) [3]: showed effect in nano molar doses/kg
ED50 [2, 5]: 4.4 µmol/kg
ED50 [2, 6]: 3.2 µmol/kg

Cc1nc2sccn2c(=O)c1CCN1CCC(=C(c2ccc(F)cc2)c2ccc(F)cc2)CC1 [Ritanserin]
Effect in light/dark discrimination test in mice [4]: did not show effect; also recorded: inactive
Effect in light/dark discrimination test in rats (active dose in words) [3]: only active in μmolar doses/kg
ED50 [2, 5]: > 21 µmol/kg
ED50 [2, 6]: > 21 µmol/kg
ED50 [2, 7]: > 10 µmol/kg
ED50 [2, 8]: > 10 µmol/kg
Effect in the aggression test ([2]; mouse, in vivo): showed no effect
